Reference: patent US10208033B2, “β-carboline, dihydro-β-carboline and tetrahydro-β-carboline alkaloid derivatives and preparation methods same and use in aspects of preventing and treating plant viruses, fungicides and insecticides” (NANKAI UNIVERSITY, priority 2013, dated 2019)
Counter-ions that a name gives are not always drawn.

How the values were obtained:
[1] = system: tobacco mosaic virus (TMV); experiment: Anti-TMV in vitro effect (half-leaf soaking); assay type: cell-based, tobacco mosaic virus (host Nicotiana tabacum L.cv.Xanthi NN)
[2] = system: tobacco mosaic virus (TMV); experiment: Anti-TMV in vivo inactivation; parameters: species or system tobacco mosaic virus (host Nicotiana tabacum L.cv.Xanthi NN)
[3] = system: tobacco mosaic virus (TMV); experiment: Anti-TMV in vivo therapeutic effect; parameters: species or system tobacco mosaic virus (host Nicotiana tabacum L.cv.Xanthi NN)
[4] = system: tobacco mosaic virus (TMV); experiment: Anti-TMV in vivo protective effect; parameters: species or system tobacco mosaic virus (host Nicotiana tabacum L.cv.Xanthi NN)
cucumber fusarium wilt = experiment: Fungicidal (bactericidal) activity in vitro, PDA colony diameter; assay type: cell-based; details: 50 mg/kg
Cercospora arachidicola = experiment: as above; assay type: cell-based; details: 50 mg/kg
Macrophoma kawatsukai = experiment: as above; assay type: cell-based; details: 50 mg/kg
Alternaria solani = experiment: as above; assay type: cell-based; details: 50 mg/kg
Fusarium graminearumt = experiment: microbe, parasite or virus in culture; assay type: cell-based; details: 50 mg/kg
potato late blight = experiment: microbe, parasite or virus in culture; assay type: cell-based
Sclerotinia scleotiorum = experiment: Fungicidal (bactericidal) activity in vitro, PDA colony diameter; assay type: cell-based; details: 50 mg/kg
Botrytis cinerea = experiment: as above; assay type: cell-based; details: 50 mg/kg
Rhizoctonia solani = experiment: as above; assay type: cell-based; details: 50 mg/kg
Phytophthora capsici = experiment: as above; assay type: cell-based; details: 50 mg/kg
Fusarium fujikuroi = experiment: as above; assay type: cell-based; details: 50 mg/kg
Rhizoctonia cereali = experiment: as above; assay type: cell-based; details: 50 mg/kg
Bipolaria maydis = experiment: organism not typed; assay type: cell-based; details: 50 mg/kg
[5] = system: Colletotrichum orbiculare; experiment: Fungicidal (bactericidal) activity in vitro, PDA colony diameter; assay type: cell-based; details: 50 mg/kg
armyworms = assay type: in vivo; details: concentration 600 mg/kg
cotton bollworms = experiment: whole plant or invertebrate; details: concentration 600 mg/kg
Procedure: Experimental method of cotton bollworms: feed and drug mixing method: measure 3 mL of prepared solution and add it to about 27 g of newly prepared feed, thereby obtaining needed concentration through dilution by 10 times.

mosquito larvae = experiment: whole plant or invertebrate; details: concentration 10 mg/kg, 24 h
Procedure: Experimental method of mosquito larvae: culex pipiens pallens, a normal colony raised indoors. Weigh about 5 mg of the compound for test, put it in a penicillin vial, add 5 mL of acetone (or an appropriate solvent), and shake and dissolve it to obtain a 1000 ppm mother solution. Pipette 0.5 mL of the mother solution, add it to a 100 mL beaker filled with 89.9 mL of water, select 10 mosquito larvae at the beginning of the fourth instar, and pour them to a beaker together with 10 mL of feeding solution. The concentration of the drug solution is 5 ppm. […] Use an aqueous solution containing 0.5 mL of test solvent as a blank.

corn borers = details: concentration 600 mg/kg

SMILES | Relative inhibition rate (%) In vitro activity ([1]; treatment dose 100 μg/mL) [%] | Relative inhibition rate (%) In vitro activity ([1]; treatment dose 500 μg/mL) [%] | Relative inhibition rate (%) In vivo inactivation ([2]; treatment dose 100 μg/mL) [%] | Relative inhibition rate (%) In vivo inactivation ([2]; treatment dose 500 μg/mL) [%] | Relative inhibition rate (%) In vivo therapy ([3]; treatment dose 100 μg/mL) [%] | Relative inhibition rate (%) In vivo therapy ([3]; treatment dose 500 μg/mL) [%] | Relative inhibition rate (%) In vivo protection ([4]; treatment dose 100 μg/mL) [%] | Relative inhibition rate (%) In vivo protection ([4]; treatment dose 500 μg/mL) [%] | Bactericidal activity (%) Cucumber fusarium wilt (cucumber fusarium wilt) [%] | Bactericidal activity (%) Cercospora arachidicola (Cercospora arachidicola) [%] | Bactericidal activity (%) Macrophoma kawatsukai (Macrophoma kawatsukai) [%] | Bactericidal activity (%) Alternaria solani (Alternaria solani) [%] | Bactericidal activity (%) Fusarium graminearumt (Fusarium graminearumt) [%] | Bactericidal activity (%) potato late blight (potato late blight) [%] | Bactericidal activity (%) Sclerotinia scleotiorum (Sclerotinia scleotiorum) [%] | Bactericidal activity (%) Botrytis cinerea (Botrytis cinerea) [%] | Bactericidal activity (%) Rhizoctonia solani (Rhizoctonia solani) [%] | Bactericidal activity (%) Phytophthora capsici (Phytophthora capsici) [%] | Bactericidal activity (%) Fusarium fujikuroi (Fusarium fujikuroi) [%] | Bactericidal activity (%) Rhizoctonia cereali (Rhizoctonia cereali) [%] | further results
CCOC(=O)[C@@H]1Cc2c([nH]c3ccccc23)CN1 [Ib-7, (S)-2,3,4,9-tetrahydropyridino [3,4-b] indol-3-ethyl formate] | 12.3 | 26.9 | 19.3 | 36.5 | 15.9 | 30.7 | 16.2 | 40.1 | 33.3 | 42.9 | 64.7 | 50.0 | 42.9 | 40.0 | 60.0 | 50.0 | 42.9 | 66.7 | 64.3 | 78.1 | Bactericidal activity (%) Bipolaria maydis (Bipolaria maydis): 42.1%; Bactericidal activity (%) Colletotrichum orbiculare [5]: 47.6%; Armyworm Mortality (%) (armyworms): 5%; Cotton bollworm Mortality (%) (cotton bollworms): 20%; Mosquito larvae Mortality (%) (mosquito larvae): 15%; Corn borer Mortality (%) (corn borers): 5%
CCCCOC(=O)[C@@H]1Cc2c([nH]c3ccccc23)[C@H](C)N1 [Ib-8, (1S, 3S)-1-methyl-2,3,4,9-tetrahydropyridino [3,4-b] indol-3-butyl formate] | 13.4 | 48.2 | 20.3 | 51.3 | 17.1 | 42.2 | 17.6 | 43.2 | 33.3 | 71.4 | 64.7 | 83.3 | 50.0 | 35.0 | 72.0 | 50.0 | 55.4 | 51.5 | 50.0 | 84.4 | Bactericidal activity (%) Bipolaria maydis (Bipolaria maydis): 89.5%; Bactericidal activity (%) Colletotrichum orbiculare [5]: 38.1%; Armyworm Mortality (%) (armyworms): 5%; Cotton bollworm Mortality (%) (cotton bollworms): 20%; Mosquito larvae Mortality (%) (mosquito larvae): 10%; Corn borer Mortality (%) (corn borers): 0%
CCOC(=O)C1Cc2c([nH]c3ccccc23)CN1 (stereo not drawn) [Ib-9, 2,3,4,9-tetrahydropyridino [3,4-b] indol-3-ethyl formate] | 12.8 | 44.5 | 16.9 | 41 | 14.3 | 42.7 | 17.2 | 40.4 | 19.2 | 84.6 | 21.4 | 26.3 | 35.7 | 22.7 | 19.6 | 12.1 | 35.5 | 15.6 | 14.3 | 44.7 | Bactericidal activity (%) Bipolaria maydis (Bipolaria maydis): 22.7%; Bactericidal activity (%) Colletotrichum orbiculare [5]: 42.9%; Armyworm Mortality (%) (armyworms): 15%; Cotton bollworm Mortality (%) (cotton bollworms): 10%; Mosquito larvae Mortality (%) (mosquito larvae): 35%; Corn borer Mortality (%) (corn borers): 10%
